Assay results: US10105367B2, “Therapeutic thiophene-, furan-, and pyridine-fused azolopyrimidin-5-(6h)-ones” (Dart Neuroscience (Cayman) Ltd., priority 2012, dated 2018)

Each compound was assayed against human PDE1B (Homo sapiens (Human), UniProt Q01064) (assay: PDE1B inhibitory assay (IMAP TR-FRET)). Conditions: PDE1B pIC50, negative log of half-maximal molar inhibitory concentration; 200 nM FAM-cAMP, Calmodulin, CaCl2.
Protocol: PDE1B inhibition was determined by an IMAP TR-FRET assay.
After a brief centrifugation, the plates were incubated for 30 minutes at room temperature. The assay was terminated by adding 5 μL IMAP binding reagent/Tb complex (Molecular Devices, Sunnyvale, Calif.) to each well.
Plates were incubated 1 hour at room temperature and read on a Viewlux multimode plate reader (Perkin Elmer). The instrument was set to excite using the DUG11 filter and measure using 490/10 nm and 520/10 nm filters. Ratios of acceptor and donor were then calculated.
For IC50 calculations, the values of % efficacy versus a series of compound concentrations were then plotted using non-linear regression analysis of sigmoidal dose-response curves generated with the equation Y=B+(T−B)/1+10((Log EC50−X)×Hill Slope), where Y=percent activity, B=minimum percent efficacy, T=maximum percent efficacy, X=logarithm of compound and Hill Slope=slope factor or Hill coefficient. The IC50 value was determined by the concentration causing a half-maximal percent efficacy.

Row | SMILES | IC50
1 | Cc1ccccc1Cn1c(=O)n2ncnc2c2cc(CN3C[C@@H](C)O[C@@H](C)C3)cnc21 [Example 283] | 1000 to 10000 nM
2 | C[C@@H]1CN(Cc2cnc3c(c2)c2ncnn2c(=O)n3Cc2cccc(I)c2)C[C@H](C)O1 [Example 284] | 100 to 1000 nM
3 | C[C@@H]1CN(Cc2cnc3c(c2)c2ncnn2c(=O)n3Cc2cc(F)cc(F)c2)C[C@H](C)O1 [Example 285] | 1000 to 10000 nM
4 | COc1ccc(Cn2c(=O)n3ncnc3c3cc(CN4C[C@@H](C)O[C@@H](C)C4)cnc32)c(Br)c1 [Example 286] | 1000 to 10000 nM
5 | C[C@@H]1CN(Cc2cnc3c(c2)c2ncnn2c(=O)n3Cc2ccc(OC(F)F)cc2F)C[C@H](C)O1 [Example 290] | 100 to 1000 nM
6 | COc1c(F)cc(Cn2c(=O)n3ncnc3c3cc(CN4C[C@@H](C)O[C@@H](C)C4)cnc32)cc1F [Example 291] | 100 to 1000 nM
7 | COc1ccc(Cn2c(=O)n3ncnc3c3cc(CN4C[C@@H](C)O[C@@H](C)C4)cnc32)c(F)c1F [Example 292] | 100 to 1000 nM
8 | C[C@@H]1CN(Cc2cnc3c(c2)c2ncnn2c(=O)n3Cc2ccc(F)c(Cl)c2)C[C@H](C)O1 [Example 294] | 100 to 1000 nM
9 | C[C@@H]1CN(Cc2cnc3c(c2)c2ncnn2c(=O)n3Cc2ccc(Cl)c(Cl)c2)C[C@H](C)O1 [Example 295] | 100 to 1000 nM
10 | COc1ccc(Cn2c(=O)n3ncnc3c3cc(CN4C[C@@H](C)O[C@@H](C)C4)cnc32)c(Cl)c1 [Example 296] | 100 to 1000 nM
11 | C[C@@H]1CN(Cc2cnc3c(c2)c2ncnn2c(=O)n3Cc2ccc(Cl)c(F)c2)C[C@H](C)O1 [Example 298] | 100 to 1000 nM
12 | C[C@@H]1CN(Cc2cnc3c(c2)c2ncnn2c(=O)n3Cc2cc(F)cc(Cl)c2)C[C@H](C)O1 [Example 299] | 1000 to 10000 nM
13 | CCOc1ccc(Cn2c(=O)n3ncnc3c3cc(CN4C[C@@H](C)O[C@@H](C)C4)cnc32)cc1 [Example 301] | 100 to 1000 nM
14 | C[C@@H]1CN(Cc2cnc3c(c2)c2ncnn2c(=O)n3Cc2ccc(F)c(F)c2)C[C@H](C)O1 [Example 302] | 100 to 1000 nM
15 | CSc1ccc(Cn2c(=O)n3ncnc3c3cc(CN4C[C@@H](C)O[C@@H](C)C4)cnc32)cc1 [Example 303] | 100 to 1000 nM

Same assay, conditions: negative log of half-maximal molar inhibitory concentration; 200 nM FAM-cAMP, Calmodulin, CaCl2

Row | SMILES | PDE1B pIC50
16 | C[C@@H]1CN(Cc2cnc3c(c2)c2ncnn2c(=O)n3Cc2ccc(C#N)cc2)C[C@H](C)O1 [Example 279] | <5
17 | C[C@@H]1CN(Cc2cnc3c(c2)c2ncnn2c(=O)n3Cc2ccc(C(C)(C)C)cc2)C[C@H](C)O1 [Example 280] | <5
18 | C[C@@H]1CN(Cc2cnc3c(c2)c2ncnn2c(=O)n3Cc2cccc(C#N)c2)C[C@H](C)O1 [Example 281] | <5
19 | C[C@@H]1CN(Cc2cnc3c(c2)c2ncnn2c(=O)n3Cc2ccc(S(C)(=O)=O)cc2)C[C@H](C)O1 [Example 282] | <5
20 | COc1cc(F)c(Cn2c(=O)n3ncnc3c3cc(CN4C[C@@H](C)O[C@@H](C)C4)cnc32)c(F)c1 [Example 287] | >7
21 | C[C@@H]1CN(Cc2cnc3c(c2)c2ncnn2c(=O)n3Cc2ccc3cnn(C)c3c2)C[C@H](C)O1 [Example 288] | <5
22 | C[C@@H]1CN(Cc2cnc3c(c2)c2ncnn2c(=O)n3Cc2ccc(-n3cccn3)cc2)C[C@H](C)O1 [Example 289] | <5
23 | C[C@@H]1CN(Cc2cnc3c(c2)c2ncnn2c(=O)n3Cc2ccccc2SC(F)(F)F)C[C@H](C)O1 [Example 293] | <5
24 | C[C@@H]1CN(Cc2cnc3c(c2)c2ncnn2c(=O)n3Cc2ccccc2OC(F)F)C[C@H](C)O1 [Example 297] | <5
25 | C[C@@H]1CN(Cc2cnc3c(c2)c2ncnn2c(=O)n3Cc2ccc(N3CCCC3=O)cc2)C[C@H](C)O1 [Example 300] | <5
